Measurements published in US5608093A, “Corticosteroid 17-alkyl carbonate 21-[0]-carboxylic and carbonic esters, and pharmaceuticals containing these compounds” (Hoechst Aktiengesellschaft, priority 1993, dated 1997).

Assays:
[1] = system: croton oil (TPA) ear edema, rat ear; assay: Local antiinflammatory effect in rat croton oil ear edema following epicutaneous application; assay type: in vivo, rat (male Wistar); conditions: for Inhibition in % / x ± s (mg), ear disk weight difference (right treated minus left untreated): epicutaneous, 4 h; for Local antiinflammatory effect (in words): general statement; for Relative local antiinflammatory potency (Result): rat ear edema, in words
Experimental: (§1) 1. Local antiinflammatory effect in rat croton oil ear edema following epicutaneous application
(§2) We used the rat ear method of Tonelli et al.: male Wistar rats from our own colony and weighing about 50 g were treated epicutaneously on the right ear with the irritant or with irritant containing test substance. The left ear remained untreated. TPA (12-O-tetradecanoylphorbol 13-acetate, SIGMA P 8139) dissolved in acetone, 0.4 mg/ml, (of which 20 μl each on the inside and outside) was used for eliciting the inflammation. The corticoids under examination were dissolved in this solution in the given final concentrations. Controls only received the TPA/solvent mixture. The animals were sacrificed using CO2 4 h after the epicutaneous treatment. Disks measuring 8 mm in diameter were punched out of the right (treated) and the left (untreated) ears and weighed immediately. This difference, as the parameter for the degree of inflammation, was set at 100 in the controls (mg, x±s). The antiinflammatory effect is characterized by giving the dose in mg/ml which is required for approximately 50% inhibition: […]

[2] = system: carrageenan paw edema; assay: Systemic antiinflammatory effect following subcutaneous administration: carrageenan paw edema in rats; assay type: in vivo, rat (male Sprague-Dawley); conditions: for Increase in volume (ml) (x ± s), paw: 6 h after carrageenan
Experimental: 2 a) Examining for systemic antiinflammatory effect in the "antiinflammatory effect following subcutaneous administration: carrageenan paw edema in rats" test.
The carrageenan paw edema test in rats in accordance with the method described by Winter et al. Proc. Soc. Exp. Biol. (New York) Volume 111, p. 544 (1962) was chosen as the test for the acute systemic antiinflammatory effect. Male Sprague-Dawley rats of about 120 g in weight were given the substances to be tested s.c. (0.2 ml/100 g) dissolved in sesame oil. 30 min later, 0.1 ml of a 0.5% carrageenan solution was injected into the left hind paw. 6 h later, the degree of swelling was measured volumetrically. Controls were only given sesame oil.
The paw volumes are given in ml, x±s. In this case too, the antiinflammatory effect is characterized by giving the dose in mg/kg required for approximately 50% inhibition.

[3] = Split (ratio) of local to systemic antiinflammatory effect / therapeutic advantage; assay type: in vivo, rat
Experimental: as §1, §2
The carrageenan paw edema test in rats in accordance with the method described by Winter et al. Proc. Soc. […] 6 h later, the degree of swelling was measured volumetrically. […]

[4] = system: gluconeogenesis in rats (liver); assay: Systemic effect: gluconeogenesis in adrenalectomized rats; conditions: for Glycogen + glucose mg/100 g of liver / Liver glycogen: 6 h; for Effect on new formation of glucose and glycogen (in words): p 0.05, t test
Experimental: A sensitive method for detecting systemic effects on carbohydrate metabolism is to examine the gluconeogenic effect of corticosteroids in the adrenalectomized rat. Three days prior to the experiment, groups of in each case 6 rats are adrenalectomized under pentobarbital anesthesia and then provided with 0.9% sodium chloride solution as drinking fluid. Two days later, i.e. 24 hours before initiating the experiment, the feed is removed in order to reduce the glycogen stores in the liver.
On the day of the experiment, the preparations under examination are administered subcutaneously, dissolved in sesame oil (2 ml/kg). Six hours later, the animals are decapitated, and in each case the liver is removed and 1 g thereof is taken up in 5 ml of 0.6 molar perchloric acid. After homogenization, the free glucose is measured in the supernatant from the centrifugation, while the centrifugation sediment (centrifugate; glycogen) is cleaved enzymically with amyloglucosidase, after which the glucose content is also measured in this fraction (Hexokinase method, Boehringer Mannheim).

[5] = 3.0 mg/kg s.c., * p<0.05, Dunnett's test
[6] = 3 mg/kg s.c., * significant, t test

Row | SMILES | Inhibition in % ([1]; 0.03 mg/ml) [%] | x ± s (mg), ear disk weight difference (right treated minus left untreated) ([1]; 0.03 mg/ml) [mg] | Inhibition in % ([1]; 0.1 mg/ml) [%] | x ± s (mg), ear disk weight difference (right treated minus left untreated) ([1]; 0.1 mg/ml) [mg] | Inhibition in % ([1]; 0.3 mg/ml) [%] | x ± s (mg), ear disk weight difference (right treated minus left untreated) ([1]; 0.3 mg/ml) [mg] | Local antiinflammatory effect (in words) [1] | Relative local antiinflammatory potency (Result) [1] | Increase in volume (ml) (x ± s), paw ([2]; 0.3 mg/kg s.c.) [mL] | Increase in volume (ml) (x ± s), paw [2, 5] [mL] | Split / ratio of local to systemic antiinflammatory effect (in words) [3] | Glycogen + glucose mg/100 g of liver ([4]; 0.3 mg/kg s.c.) | Liver glycogen ([4]; 0.3 mg/kg s.c.) | Glycogen + glucose mg/100 g of liver [4, 6] | Liver glycogen [4, 6] | Effect on new formation of glucose and glycogen (in words) ([4]; 3 mg/kg s.c.) | Inhibition in % ([1]; 1 mg/ml) [%] | x ± s (mg), ear disk weight difference (right treated minus left untreated) ([1]; 1 mg/ml) [mg] | Systemic effect in paw edema compared with the test compounds (in words) ([2]; significant only after 3 mg/kg, s.c.)
1 | CCOC(=O)O[C@]1(C(=O)COC(=O)Cc2ccccc2)CC[C@H]2[C@@H]3CCC4=CC(=O)C=C[C@]4(C)[C@H]3[C@@H](O)C[C@@]21C [Compound I, Prednisolone 17-ethyl carbonate 21-phenylacetate] | 33 | 10 ± 3.0 | 67 | 5 ± 1.1 | 80 | 3 ± 2.3 | strong local antiinflammatory effect | approximately three times more powerful than prednicarbate | 0.34 ± 0.12 | 0.19 ± 0.9 | strikingly favorable split to weak systemic activity | 11.3 ± 2.0 mg/100 g of liver | 0.5 ± 0.7 | 25.9 ± 13 mg/100 g of liver | 2.4 ± 2.4 | do not have any significant effect at 3 mg/kg | – | – | –
2 | CCOC(=O)O[C@]1(C(=O)COC(=O)CC)CC[C@H]2[C@@H]3CCC4=CC(=O)C=C[C@]4(C)[C@H]3[C@@H](O)C[C@@]21C [Prednicarbate, prednisolone 17-ethyl carbonate 21-propionate, reference compound] | – | – | – | – | – | – | – | – | – | – | – | – | – | – | – | – | 80 | 3 ± 1.7 | corresponds to the behavior of prednicarbate
3 | CCOC(=O)O[C@]1(C(=O)COC(=O)Cc2ccccc2)[C@@H](C)C[C@H]2[C@@H]3CCC4=CC(=O)C=C[C@]4(C)[C@@]3(F)[C@@H](O)C[C@@]21C [Compound II, Betamethasone 17-ethyl carbonate 21-phenyl acetate] | – | – | 66 | 5.1 ± 3.3 | 70 | 4.5 ± 3.1 | strong local antiinflammatory effect | corresponding effect to that of compound I | 0.33 ± 0.12 | 0.19 ± 0.9 | strikingly favorable split to weak systemic activity | 23.6 ± 6.8 mg/100 g of liver | 2.8 ± 1.4 | 37.9 ± 30 mg/100 g of liver | 7.4 ± 10 | do not have any significant effect at 3 mg/kg | – | – | –
